Five molecules from US12252522B2, “Myokines for treating cell proliferative and metabolic diseases and disorders” (Northwestern University, priority 2019, dated 2025) can be followed below.

Assay [1] deals with pancreatic ductal carcinoma PDX model. The assay can be described thus: in vivo validation of CPT on pancreatic ductal carcinoma PDX model. The note with it: co-treatment gemcitabine 10 mg/kg + 9-ING-41 40 mg/kg, i.p. 3x a week.
Assay [2] relates to HCT116 colon cancer cells. In words: PWS imaging of HCT116 cells after chemotherapy, CPT and their combination. The format is cell-based. The note with it: celecoxib (CPT) added to oxaliplatin.
The next assay concerns cancer cells. The assay can be described thus: live cell PWS (D) and transcriptional heterogeneity of cancer cells surviving chemotherapy. The format is cell-based. The text has this: FIGS. 2A-2K. Four aspects of transcriptional heterogeneity regulation by chromatin D: (a) diversity (the relative dynamic range of expression; HT29 cells, 2445 genes), (b) intercellular heterogeneity, (c) intranetwork heterogeneity, and (d) amplification of changes in expression (ratio of changes in the expression rate of 800 significant genes induced by paclitaxel in A2780 ovarian cancer cells for high- vs. low-D cells). Predictions of a computational transcriptomics (multiscale analysis, MSA) model are shown as blue curves. (e) Chemotherapy leads to the survival of cancer cells with high D (middle-top panel; live cell PWS images of D; arrows: nuclei) and transcriptional (right-top) heterogeneity, while CPT agents (digoxin) decrease both (bottom). Left panels: MSA simulations of chromatin packing show a CPT-induced transition from a network to polymer-like packing. (f) Cells surviving chemotherapy treatment (paclitaxel (PAC); 48 h, A2780) have a larger global transcriptional space (single cell sequencing) while CPT (celecoxib) reduces it. (g) PWS images of HCT116 colon cancer cells after treatment with chemotherapy (oxaliplatin), CPT (celecoxib), and their combination. The addition of a CPT leads to >98% cancer cell death. […] Key: docetaxel (D), paclitaxel (P), oxaliplatin (0), digoxin (D), celecoxib (C), VPA (V), aspirin (A). […]

The subject of another assay is HT29. The assay can be described thus: growth of HT29 cells treated with myostatin or metrnl and oxaliplatin. The format is cell-based, human. The note with it: for growth of colorectal cancer cell line: HT29, alone; for effect in combination with oxaliplatin: HT29, combination with oxaliplatin. The source says: FIGS. 6A-6C. Treatment of colon cancer cells lines with myokines and oxaliplatin. (a) HCT116 cells treated with myokines, oxaplatin, and combination of myokines and oxaplatin. (b) H29 cells treated with oxoplatin (ox), myostatin, and a combination of myostatin and oxaplatin. (c) H29 cells treated with oxoplatin (ox), metrnl, and a combination of metrnl and oxaplatin.
Next, we treated colorectal cancer cell lines HCT116 and HT29 with a myokine fraction and the specific myokines myostain and metrnl either by themselves or in combination with oxaliplatin. […] (See FIG. 6).

As for `Cn1cc(C2=C(c3coc4ccc(F)cc34)C(=O)NC2=O)c2cc3c(cc21)OCO3` [9-ING-41], the “tumor volume relative to initial size” value in assay [1] was < 4 % of the initial size.

Turning to `Cc1ccc(-c2cc(C(F)(F)F)nn2-c2ccc(S(N)(=O)=O)cc2)cc1` [celecoxib], the cancer cell death in assay [2] was greater than 98%.

With `C[C@H]1O[C@@H](O[C@H]2[C@@H](O)C[C@H](O[C@H]3[C@@H](O)C[C@H](O[C@H]4CC[C@@]5(C)[C@H](CC[C@@H]6[C@@H]5C[C@@H](O)[C@]5(C)[C@@H](C7=CC(=O)OC7)CC[C@]65O)C4)O[C@@H]3C)O[C@@H]2C)C[C@H](O)[C@@H]1O` [digoxin], the “chromatin packing scaling D” value with cancer cells is “decrease both”.

myostatin [myostain]: in the assay with HT29, the “growth of colorectal cancer cell line” value is “reduced the growth” and the “effect in combination with oxaliplatin” value is “synergistic effect”.

B1: metrnl (protein, UniProt Q641Q3 46-311, looked up)
Meteorin-like protein: QYSSDRCSWKGSGLTHEAHRKEVEQVYLRCAAGAVEWMYPTGALIVNLRPNTFSPARHLTVCIRSFTDSSGANIYLEKTGELRLLVPDGDGRPGRVQCFGLEQGGLFVEATPQQDIGRRTTGFQYELVRRHRASDLHELSAPCRPCSDTEVLLAVCTSDFAVRGSIQQVTHEPERQDSAIHLRVSRLYRQKSRVFEPVPEGDGHWQGRVRTLLECGVRPGHGDFLFTGHMHFGEARLGCAPRFKDFQRMYRDAQERGLNPCEVGTD
notes: specific myokine
In the case of B1, in the assay on HT29, the “growth of colorectal cancer cell line” value was “reduced the growth” and the “effect in combination with oxaliplatin” value was “synergistic effect”.
